Several values for one entry are separate records, joined by “and”; a condition that tells them apart may be missing. Identical values can stand only once.
Tested on: LNCaP tumor-bearing CB17-SCID mice
Assay: Biodistribution study in LNCaP tumor-bearing mice
Format: in vivo
Experimental: All animal experiments were conducted in accordance with general animal welfare regulations in Germany (German animal protection act, in the edition of the announcement, dated May 18th, 2006, as amended by Article 280 of June 19th 2020, approval no. ROB-55.2-1-2532.Vet_02-18-109 by the General Administration of Upper Bavaria) and the institutional guidelines for the care and use of animals. Male CB17-SCID mice were purchased from Charles River (Sulzfeld, Germany) and arrived at the in-house animal facility to acclimate at least 1 week before the start of the experiment. Tumor xenografts were established by subcutaneous inoculation of LNCaP cells (approx. 2 × 10^7 cells in 200 µL of a 1:1 mixture of Cultrex BME (R&D Systems, Minneapolis, United States) and DMEM/Ham's F-12) onto the right shoulder of 6-8 weeks old male CB17-SCID mice. The animals were used for experiments when tumors had grown to a size of 5-10 mm in diameter. Criteria for the exclusion of animals from the experiment were weight loss higher than 20%, tumor size above 1.5 cm^3, ulceration of the tumor, respiratory distress or change of behavior. […] Neither randomisation nor blinding was applied in the allocation of the experiments. Quarterly health monitoring was performed according to the FELASA recommendations.
Biodistribution Studies. The ^99mTc-labeled radioligands (2.7 ± 0.7 MBq, 82 ± 20 pmol) were injected into a lateral tail vein of LNCaP-tumor bearing mice (n = 4-5) under isoflurane anesthesia. Animals were sacrificed at 6 h post injection (p.i.) by carbon dioxide inhalation and blood withdrawal via cardiac puncture. Blood and tissues of interest were collected, weighed and the activity measured in a γ-counter. Radioligand uptake is given in percent of the injected dose per gram of tissue (% ID/g) and results are presented as mean ± SD.
In line with the above, the biodistribution study of [^99mTc]Tc-N4-PSMA-21 was carried out with n = 5 animals ("data set I"). […] Kidney uptake of mouse #3 (36.17 %ID/g) exceeded the value obtained from the other four animals (4.58 ± 1.44 %ID/g, mean ± SD) 7.9-fold or by more than 20 standard deviations. In addition, tumor uptake of mouse #3 (21.92 %ID/g) exceeded the value obtained from the other four animals (11.02 ± 2.22 %ID/g, mean ± SD) 2.0-fold or by more than 4 standard deviations Due to the uncertainty whether these huge deviations arise from an experimental error or might be related to strongly deviating metabolic processes e.g. abnormal kidney function in mouse #3, the study primarily presents and discusses the data set based on the other four animals (n = 4, "data set II"). A thorough evaluation and comparison was, however, also carried out including mouse #3.

[1] = 6 h p.i., male LNCaP tumor-bearing CB17-SCID mice, mean, n = 4-5
[2] = 6 h p.i., mean of ratios of individual animals, n = 4-5
[3] = 6 h p.i., relative to [^99mTc]Tc-PSMA-I&S

## CC(C)(C)[Si](O)(c1ccc(C(=O)NC[C@@H](NC(=O)[C@@H](CCC(=O)O)NC(=O)C(CNCCN)CNCCN)C(=O)N[C@H](CCCCNC(=O)CCC(=O)NCCC[C@@H](NC(=O)CC[C@H](NC(=O)N[C@@H](CCC(=O)O)C(=O)O)C(=O)O)C(=O)O)C(=O)O)cc1)C(C)(C)C.[O]=[99Tc+]=[O] [[^99mTc]Tc-N4-PSMA-12]
[1]
  uptake in % iD/g adrenals: 0.6570 % ID/g
  uptake in % iD/g blood: 0.0200 ± 0.0044 % ID/g and 0.0200 % ID/g
  uptake in % iD/g bone: 0.0365 % ID/g
  uptake in % iD/g heart: 0.0274 % ID/g
  uptake in % iD/g intestine: 0.5391 % ID/g
  uptake in % iD/g kidney: 12.3 ± 8.0 % ID/g and 12.2924 % ID/g
  uptake in % iD/g liver: 0.1796 % ID/g
  uptake in % iD/g lung: 0.0613 % ID/g
  uptake in % iD/g muscle: 0.0110 % ID/g
  uptake in % iD/g pancreas: 0.0206 % ID/g
  uptake in % iD/g parotid gland: 0.0804 % ID/g
  uptake in % iD/g spleen: 0.8928 % ID/g
  uptake in % iD/g stomach: 0.0988 % ID/g
  uptake in % iD/g submandibular gland: 0.1450 % ID/g
  uptake in % iD/g tumor: 13.0231 % ID/g
[2]
  tumor-to-background ratio adrenals: 22.15
  tumor-to-background ratio blood: 658 ± 147 and 657.74
  tumor-to-background ratio bone: 384.40
  tumor-to-background ratio heart: 484.90
  tumor-to-background ratio intestine: 57.76
  tumor-to-background ratio kidney: 1.64 ± 1.29 and 1.64
  tumor-to-background ratio liver: 79.92
  tumor-to-background ratio lung: 216.68
  tumor-to-background ratio muscle: 1265.34
  tumor-to-background ratio pancreas: 637.21
  tumor-to-background ratio parotid gland: 177.38
  tumor-to-background ratio spleen: 17.89
  tumor-to-background ratio stomach: 158.87
  tumor-to-background ratio submandibular gland: 90.45
[3]
  fold T/blood-ratio in comparison with [^99mTc]Tc-PSMA-I&S: 3 fold
  fold T/kidney-ratio in comparison with [^99mTc]Tc-PSMA-I&S: 20 fold
Relative to [^99mTc]Tc-PSMA-I&S
  fold decrease of blood activity at 6 h p.i.: 3.6 fold
